Results from patent publication US20190284192A1, “NITROGENOUS MACROCYCLIC COMPOUND, PREPARATION METHOD THEREFOR, PHARMACEUTICAL COMPOSITION AND APPLICATION THEREOF” (LUOXIN PHARMACEUTICAL (SHANGHAI) CO., LTD., priority 2016, published 2019).

How the values were obtained:
[1] = Metabolic stability in mouse liver microsomes; assay type: in vitro ADME; conditions: mouse liver microsomes 0.5 mg/mL, NADPH, 37° C.; for CLint scaled at 1 µM: pH 7.4, read-out: MLM_CLint
Method: (§1) Determinations of the metabolic stability of the compound from the above embodiments, the detailed operation steps are as followed:
(§2) 1. Preparation of buffer C:
(§3) Buffer A: 1.0 L of 0.1 M potassium dihydrogen phosphate buffer (containing 1.0 mM EDTA);
(§4) Buffer B: 1.0 L of 0.1 M dipotassium hydrogen phosphate buffer (containing 1.0 mM EDTA);
(§5) Buffer C: 500 mL Buffer B was titrated with Buffer A to pH 7.4.
(§6) 2. 10 mM stock solution preparation:
(§7) 10 mM test compound: A certain amount of the test compound was weighed and dissolved in DMSO.
(§8) 10 mM control: 5.455 mg of ketanserin dissolved in 1 mL DMSO.
(§9) 3. Preparation of the drug solution:
(§10) 500 μM solution: 5 μL of 10 mM stock solution (see step 2) was added into 95 μL ACN;
(§11) 1.5 μM dosing solution (dissolved in liver microsome solution):
(§12) 18.75 μL of 20 mg/mL liver microsomes was added into 479.75 μL of Buffer C, then 1.5 μL of 500 μM solution was added and mixed gently by shaking.
(§13) 4. Preparation of 6 mM NADPH solution:
(§14) 15 mg NADPH was weighted, then added into 3 mL of buffer C to prepare a 6 mM NADPH solution.
(§15) 5. 30 µL of 1.5 μM dosing solution (see step 3) was added into the wells of the 96-well plate set at different time points (0 minutes, 5 minutes, 15 minutes, 30 minutes, 45 minutes), number of dulplicate sample is 2.
(§16) 6. Preparation of a 0 minutes sample: 135 μL ACN (with internal standard) was added to the 0 minutes well, followed by 15 µL of 6 mM NADPH solution.
(§17) 7. The 96-well plate containing 1.5 μM dosing solution and NADPH solution were preheated in a 37° C. water bath for 5 minutes.
(§18) 8. The 15 µL of 6 mM NADPH solution preheated was added into the wells set to 5 minutes, 15 minutes, 30 minutes, 45 minutes, then the reaction was initiated and started counting the time.
(§19) 10. The sample was vortexed for 10 min, and then centrifuged for 15 minutes on a centrifuge (Thermo Multifuge×3R) using 5594×g.
(§20) 11. 50 μL of the supernatant was taken from the centrifuged sample, transferred to a 96-well sample plate to which 100 μL of ultrapure water had already been added, mixed, and finally sent to LC-MS/MS for analysis.
(§21) Half time (T1/2)=0.693/K (K is the rate constant obtained by linear regression of the logarithm of the concentration as vertical coordinates and the culturing time as the abscissa)
(§22) 2. According to the equation formula bellow, Excel was used to plot the compound content versus reaction time, as well as half life calculation (min)
(§23) Y=(Y0−Plateau)×e^(−K*X)+Plateau
(§24) Y0 represents the compound content at 0 minutes; Y represents the compound content; X represents the time point; K represents degration rate constant of the compound; Plateau represents the lowest possible content of the compound (defined herein as 0).

[2] = Metabolic stability in human liver microsomes; assay type: in vitro ADME; conditions: human liver microsomes 0.5 mg/mL, NADPH, 37° C.; for CLint scaled at 1 µM: pH 7.4, read-out: HLM_CLint
Method: as §1, §2, §3, §4, §5, §6, §7, §8, §9, §10, §11, §12, §13, §14, §15, §16, §17, §18, §19, §20, §21, §22, §23, §24

BRD4 (BD2) = target: T1, BRD4 (BD2) (Homo sapiens, UniProt O60885); assay: BRD4 (BD2) bromodomain binding, HTRF; conditions: 2 h incubation at r.t.
T1 construct: Each member comprises two tandem bromodomains (BD1 and BD2) for recognizing the acetylated lysine residues

BRD4 (BD1) = target: T2, BRD4 (BD1) (Homo sapiens, UniProt O60885); assay: BRD4 (BD1) bromodomain binding, HTRF; conditions: 2 h incubation at r.t.
T2 construct: Each member comprises two tandem bromodomains (BD1 and BD2) for recognizing the acetylated lysine residues

MV-4-11 cells = assay: Inhibitory effect on MV-4-11 cells (CellTiter-Glo); assay type: cell-based; conditions: Homo sapiens, MV4-11; 72 hours, CellTiter-Glo; read-out: MV-4-11
Method: 2. The cells were transferred to a 15 mL centrifuge tube, after centrifuged at 1000 rpm for 5 min, the supernatant was discarded;
3. The complete medium (IMDM+10% FBS) was added, then blown and patted into single cell suspension, counted by Vi-cell cytometer, the cell suspension was adjusted to desired cell density by the complete medium.
4. The cells were inoculated into a 96 well plate, the cell number was 15000/well at 100 μL per well, 100 μL complete medium was added into the black control.
2. Intermediate plate areparation
6. XLfit was used for data processing. Inhibition rate %=(d−c)/(d−b)×100, while d is the signal value of the DMSO treated group, c is the signal value of the compound treated group, b is signal value of the blank control that only containing medium and DMSO without cells. The data was fitted using the f(x)205[fit=(A+((B−A)/(1+((C/x)^∧D))))] equation in the XLfit software.

SU-DHL-6 cells = assay: Inhibitory effect on SU-DHL-6 cells (CellTiter-Glo); assay type: cell-based; conditions: Homo sapiens; 72 hours, CellTiter-Glo; read-out: SU-DHL-6
Method: Determinations of the inhibition of the compounds from the above embodiments against SU-DHL-6 cells, the detailed operation steps are as followed:
The 1st Day: Seed the Cells on the Plate
1. The cells were verified that they were in good conditions by observation under microscope;
2. The cells were transferred to a centrifuge tubes, after centrifuged at 1000 rpm for 5 min, the supernatant was discarded;
3. The complete substrate (1640+10% FBS) was added, then blown and patted into single cell suspension, counted by Vi-cell cytometer, the cell suspension was adjusted to desired cell density by the complete medium.
4. The cells were inoculated into a 96 well plate, the cell number was 12000/well at 100 μL per well, 100 μL complete medium was added into the black control;
5. 37° C., 5% CO2 culture overnight.
The 2nd Day: Addition of the Drugs
1. 1000× Compound Plate Preparation
1.1. The test compound was prepared into 10 mM working solution by using DMSO. Then the STS was prepared into 2 mM working solution by using DMSO.
1.2. In the round bottom 96 wells plate, the column 2 of row A to H was added into 60 μL 10 mM test compound (or STS) working solution, columns 3-11 were added into 40 μL DMSO, 20 μL drug solution was pipetted from the column 2 to the column 3, blown and patted for a homogeneous mixture; then 20 μL solution was pipetted from the column 3 to the column 4, blown and patted for a homogeneous mixture, sequently, the drug was diluted by 3 times, 10 concentrations in total. The columns 1 and 12 were supplemented with 40 μL of DMSO.
2. Intermediate plate preparation
A sterile V-bottom 96 deep well plate was used and in each well, 495 μL FBS-free PRMI 1640 medium was added, then 5 μL of the diluted compound (or DMSO) in the 1000× compound plate was pipetted into corresponding position of the V-bottom 96 well plate, blown and patted evenly.
3.1. The cell plate was taken out from the incubator and was observed under microscope. The diluted compound or DMSO in the intermediate plate was added into the cell plate, 11 μL each well.
3.2. The cell was continued to be cultured at 37° C., 5% CO2 for 72 hours.
The 5th Day: CellTiter-Glo Detection of the Cell Activity
1. The CellTiter-Glo buffer and the reaction substrate were taken out from the refrigerator, after balanced to r.t., the buffer was poured into a brown bottle containing the substrate, the bottle was upside down to have the substrate powder sufficientaly dissolved.
2. The cell was observed under microscope; the cell plate was balanced to r.t.
3. The prepared CellTiter-Glo was added into the 96 well plate, at 100 μL/well.
4. The cell plate was placed on a shaker for 10 min, followed by standing at r.t. for 10 min.
5. A white seal film was attached to the bottom of the well plate, and the chemiluminescence signal of each well was detected by the Enspire microplate detector.
6. XLfit was used for data processing. Inhibition rate %=(d-c)/(d-b)×100, while d is the signal value of the DMSO treated group, c is the signal value of the compound treated group, b is signal value of the blank control that only containing medium and DMSO without cells. The data was fitted using the f (x)205[fit=(A+((B−A)/(1+((C/x)^∧D))))] equation in the XLfit software.

Compound: CCS(=O)(=O)Nc1ccc(Oc2ccc(F)cc2F)c(-c2cn(C)c(=O)c3[nH]ccc23)c1 [ABBV-075]
- MLM_T1/2 [1]: 81.11 min
- CLint scaled at 1 µM [1]: 67.3 mL/min/kg
- HLM_T1/2 [2]: 1465.60 min
- CLint scaled at 1 µM [2]: 1.19 mL/min/kg
- IC50 (BRD4 (BD2)): 1 nM
- IC50 (BRD4 (BD1)): 2 nM
- IC50 (MV-4-11 cells): 7 nM
- IC50 (SU-DHL-6 cells): 21 nM

Compound: CCS(=O)(=O)Cc1ccc2c(c1)-c1cn(C)c(=O)cc1CN=C2c1ccc(F)cc1 [Compound 4009, 7-(4-fluorophenyl)-2-methyl-10-(ethylsulfonemethyl)-2H-benzo[c]pyrido[3,4-e]azepin-3(5H)-ketone]
- MLM_T1/2 [1]: 588.07 min
- CLint scaled at 1 µM [1]: 9.28 mL/min/kg
- HLM_T1/2 [2]: 471.41 min
- CLint scaled at 1 µM [2]: 3.69 mL/min/kg
- IC50 (BRD4 (BD2)): 5 nM
- IC50 (BRD4 (BD1)): 6 nM
- IC50 (MV-4-11 cells): 53 nM
- IC50 (SU-DHL-6 cells): 83 nM

Compound: CCS(=O)(=O)Cc1ccc2c(c1)-c1cn(C)c(=O)cc1[C@H](C)N=C2c1ccc(F)cc1 [Compound 4026, (S)-10-((ethylsulfone)methyl)-7-(4-fluorophenyl)-2,5-dimethyl-2,5-dihydro-3H-benzo[c]pyrido[3,4-e]azepin-3-ketone]
- MLM_T1/2 [1]: ∞
- HLM_T1/2 [2]: ∞
- IC50 (BRD4 (BD2)): 1 nM
- IC50 (BRD4 (BD1)): 2 nM
- IC50 (MV-4-11 cells): 4 nM
- IC50 (SU-DHL-6 cells): 10 nM
